Laboratory results taken from ChEMBL document CHEMBL3991601, “The target landscape of clinical kinase drugs” (Science, 2017).
Calls of active or inactive are those of the source.

Columns and labels:
[1] = biological target: Macrophage-stimulating protein receptor (Homo sapiens, UniProt Q04912)
Glycine--tRNA ligase = biological target: T1, Glycine--tRNA ligase (Homo sapiens, UniProt P41250)
T1 sequence (P41250 whole entry): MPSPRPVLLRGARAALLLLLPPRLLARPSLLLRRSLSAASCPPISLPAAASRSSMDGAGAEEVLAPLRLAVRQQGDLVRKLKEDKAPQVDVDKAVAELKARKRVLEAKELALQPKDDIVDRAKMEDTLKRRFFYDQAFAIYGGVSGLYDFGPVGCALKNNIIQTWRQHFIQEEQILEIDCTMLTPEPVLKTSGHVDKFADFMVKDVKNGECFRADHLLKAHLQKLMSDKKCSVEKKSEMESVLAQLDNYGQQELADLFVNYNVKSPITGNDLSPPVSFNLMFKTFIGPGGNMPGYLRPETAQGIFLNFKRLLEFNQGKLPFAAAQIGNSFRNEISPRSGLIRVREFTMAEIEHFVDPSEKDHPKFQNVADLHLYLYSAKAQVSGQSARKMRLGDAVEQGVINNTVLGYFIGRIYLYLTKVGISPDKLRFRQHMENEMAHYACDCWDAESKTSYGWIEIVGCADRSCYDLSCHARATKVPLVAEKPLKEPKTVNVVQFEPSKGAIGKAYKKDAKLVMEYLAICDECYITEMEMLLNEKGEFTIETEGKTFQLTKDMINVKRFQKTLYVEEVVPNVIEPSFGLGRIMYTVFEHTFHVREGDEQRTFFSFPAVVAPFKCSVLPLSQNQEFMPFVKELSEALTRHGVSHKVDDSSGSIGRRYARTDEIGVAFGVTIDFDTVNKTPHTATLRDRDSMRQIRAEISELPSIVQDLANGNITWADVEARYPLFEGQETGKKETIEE

[2] = biological target: T2, ATP-dependent RNA helicase DDX42 (Homo sapiens, UniProt Q86XP3)
T2 sequence (Q86XP3 whole entry): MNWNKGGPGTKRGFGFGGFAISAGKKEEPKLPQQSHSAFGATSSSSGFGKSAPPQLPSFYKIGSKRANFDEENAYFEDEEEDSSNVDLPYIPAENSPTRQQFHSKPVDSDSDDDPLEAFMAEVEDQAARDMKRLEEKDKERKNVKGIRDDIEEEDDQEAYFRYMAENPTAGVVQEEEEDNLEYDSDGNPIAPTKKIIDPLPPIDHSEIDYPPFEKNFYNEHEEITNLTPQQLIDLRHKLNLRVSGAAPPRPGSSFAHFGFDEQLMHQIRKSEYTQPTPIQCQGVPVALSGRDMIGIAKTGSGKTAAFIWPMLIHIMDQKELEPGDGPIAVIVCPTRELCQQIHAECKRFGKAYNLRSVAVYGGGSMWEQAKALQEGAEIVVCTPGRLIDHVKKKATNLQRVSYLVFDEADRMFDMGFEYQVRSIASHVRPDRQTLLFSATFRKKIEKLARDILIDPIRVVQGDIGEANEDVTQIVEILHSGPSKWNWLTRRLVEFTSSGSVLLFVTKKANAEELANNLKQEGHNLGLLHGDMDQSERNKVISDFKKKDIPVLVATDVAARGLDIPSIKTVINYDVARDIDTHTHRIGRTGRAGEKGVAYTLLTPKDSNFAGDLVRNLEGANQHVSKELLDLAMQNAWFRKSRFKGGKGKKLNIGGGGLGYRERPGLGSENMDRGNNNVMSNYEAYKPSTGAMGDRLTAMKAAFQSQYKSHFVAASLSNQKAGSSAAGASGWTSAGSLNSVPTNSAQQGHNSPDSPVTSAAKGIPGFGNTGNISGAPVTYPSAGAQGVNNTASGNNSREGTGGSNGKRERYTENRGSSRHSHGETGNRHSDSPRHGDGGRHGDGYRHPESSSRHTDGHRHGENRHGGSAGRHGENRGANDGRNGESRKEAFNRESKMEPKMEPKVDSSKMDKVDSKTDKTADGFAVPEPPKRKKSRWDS

[3] = biological target: Epidermal growth factor receptor (Homo sapiens, UniProt P00533)
[4] = biological target: Casein kinase I isoform gamma-1 (Homo sapiens, UniProt Q9HCP0)
[5] = biological target: Tyrosine-protein kinase Fyn (Homo sapiens, UniProt P06241)
Activin receptor type-2B = Activin receptor type-2B (Homo sapiens, UniProt Q13705)
[6] = biological target: Mitogen-activated protein kinase 10 (Homo sapiens, UniProt P53779)
[7] = biological target: T3, cGMP-dependent protein kinase 1 (Homo sapiens, UniProt Q13976)
T3 sequence (Q13976 whole entry): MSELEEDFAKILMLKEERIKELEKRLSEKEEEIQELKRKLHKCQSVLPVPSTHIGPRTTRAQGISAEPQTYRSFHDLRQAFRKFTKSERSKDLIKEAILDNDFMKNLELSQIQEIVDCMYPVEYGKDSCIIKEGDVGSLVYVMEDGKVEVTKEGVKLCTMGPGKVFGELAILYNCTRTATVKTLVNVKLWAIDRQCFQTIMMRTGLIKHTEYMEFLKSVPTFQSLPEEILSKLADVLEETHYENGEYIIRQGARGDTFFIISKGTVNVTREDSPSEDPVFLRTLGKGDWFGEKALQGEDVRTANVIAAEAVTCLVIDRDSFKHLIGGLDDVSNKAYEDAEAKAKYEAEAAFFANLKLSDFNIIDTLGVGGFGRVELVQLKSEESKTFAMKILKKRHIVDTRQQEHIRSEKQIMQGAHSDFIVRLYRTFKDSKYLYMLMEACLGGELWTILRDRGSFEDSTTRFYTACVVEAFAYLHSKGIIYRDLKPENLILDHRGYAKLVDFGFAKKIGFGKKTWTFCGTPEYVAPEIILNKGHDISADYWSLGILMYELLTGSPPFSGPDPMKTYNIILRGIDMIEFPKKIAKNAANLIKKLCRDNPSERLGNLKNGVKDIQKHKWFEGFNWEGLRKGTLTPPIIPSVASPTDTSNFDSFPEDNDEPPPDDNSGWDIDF

[8] = biological target: Ribosomal protein S6 kinase alpha-3 (Homo sapiens, UniProt P51812)
Rab-like protein 3 = biological target: T4, Rab-like protein 3 (Homo sapiens, UniProt Q5HYI8)
T4 sequence (Q5HYI8 whole entry): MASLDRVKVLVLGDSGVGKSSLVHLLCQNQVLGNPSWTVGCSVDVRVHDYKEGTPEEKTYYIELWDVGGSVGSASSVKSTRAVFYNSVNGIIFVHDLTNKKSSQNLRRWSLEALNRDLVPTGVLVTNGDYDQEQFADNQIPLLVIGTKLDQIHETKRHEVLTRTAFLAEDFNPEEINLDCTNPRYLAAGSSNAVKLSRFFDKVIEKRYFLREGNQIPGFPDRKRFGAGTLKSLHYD

Measured: Kd
Also: in the data inactive means no Kd found up to 30 µM.

Chain of Epidermal growth factor receptor (P00533 whole entry, canonical isoform): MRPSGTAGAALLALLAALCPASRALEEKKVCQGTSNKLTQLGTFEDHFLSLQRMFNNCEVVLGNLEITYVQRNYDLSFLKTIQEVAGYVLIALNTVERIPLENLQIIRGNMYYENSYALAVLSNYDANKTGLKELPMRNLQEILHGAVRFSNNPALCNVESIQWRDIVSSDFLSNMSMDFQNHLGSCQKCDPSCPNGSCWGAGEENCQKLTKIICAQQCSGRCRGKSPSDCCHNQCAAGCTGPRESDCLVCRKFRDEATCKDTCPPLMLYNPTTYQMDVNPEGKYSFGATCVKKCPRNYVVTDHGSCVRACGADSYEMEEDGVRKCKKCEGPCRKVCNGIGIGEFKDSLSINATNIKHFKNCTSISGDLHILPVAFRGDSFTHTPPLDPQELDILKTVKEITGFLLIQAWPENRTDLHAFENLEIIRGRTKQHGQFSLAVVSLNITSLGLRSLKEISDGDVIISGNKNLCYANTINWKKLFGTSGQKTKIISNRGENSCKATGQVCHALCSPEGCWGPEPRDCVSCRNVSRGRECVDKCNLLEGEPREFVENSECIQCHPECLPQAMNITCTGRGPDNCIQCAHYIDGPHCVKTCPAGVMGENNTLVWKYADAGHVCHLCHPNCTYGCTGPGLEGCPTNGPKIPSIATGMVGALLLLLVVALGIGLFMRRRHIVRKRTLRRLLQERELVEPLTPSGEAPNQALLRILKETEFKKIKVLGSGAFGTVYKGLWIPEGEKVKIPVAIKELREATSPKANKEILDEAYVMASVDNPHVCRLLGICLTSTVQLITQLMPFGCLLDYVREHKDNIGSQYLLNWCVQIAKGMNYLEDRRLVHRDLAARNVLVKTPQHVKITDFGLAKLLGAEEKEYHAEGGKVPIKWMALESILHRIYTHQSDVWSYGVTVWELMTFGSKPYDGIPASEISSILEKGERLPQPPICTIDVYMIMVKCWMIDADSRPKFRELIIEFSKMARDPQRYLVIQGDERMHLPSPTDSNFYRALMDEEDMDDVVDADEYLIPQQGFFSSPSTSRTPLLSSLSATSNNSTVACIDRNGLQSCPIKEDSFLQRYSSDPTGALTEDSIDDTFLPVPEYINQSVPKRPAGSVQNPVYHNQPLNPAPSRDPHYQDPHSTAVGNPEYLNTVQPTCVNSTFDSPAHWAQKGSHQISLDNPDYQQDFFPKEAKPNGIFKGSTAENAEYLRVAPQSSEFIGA
Chain of Tyrosine-protein kinase Fyn (P06241 whole entry): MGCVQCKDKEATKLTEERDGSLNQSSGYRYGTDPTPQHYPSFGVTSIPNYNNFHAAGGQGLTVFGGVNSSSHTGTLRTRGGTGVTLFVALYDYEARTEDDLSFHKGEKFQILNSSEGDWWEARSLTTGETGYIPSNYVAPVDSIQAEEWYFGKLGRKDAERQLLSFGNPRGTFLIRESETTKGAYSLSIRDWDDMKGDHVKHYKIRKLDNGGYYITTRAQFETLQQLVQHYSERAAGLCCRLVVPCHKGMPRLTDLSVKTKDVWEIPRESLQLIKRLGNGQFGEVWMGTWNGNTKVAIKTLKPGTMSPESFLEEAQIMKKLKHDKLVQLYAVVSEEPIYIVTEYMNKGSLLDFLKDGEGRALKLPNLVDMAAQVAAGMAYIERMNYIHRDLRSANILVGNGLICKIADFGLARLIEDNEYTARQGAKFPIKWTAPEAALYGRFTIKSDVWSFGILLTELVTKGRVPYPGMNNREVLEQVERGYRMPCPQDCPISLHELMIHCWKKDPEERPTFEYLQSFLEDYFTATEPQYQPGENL
Chain of Activin receptor type-2B (Q13705 whole entry): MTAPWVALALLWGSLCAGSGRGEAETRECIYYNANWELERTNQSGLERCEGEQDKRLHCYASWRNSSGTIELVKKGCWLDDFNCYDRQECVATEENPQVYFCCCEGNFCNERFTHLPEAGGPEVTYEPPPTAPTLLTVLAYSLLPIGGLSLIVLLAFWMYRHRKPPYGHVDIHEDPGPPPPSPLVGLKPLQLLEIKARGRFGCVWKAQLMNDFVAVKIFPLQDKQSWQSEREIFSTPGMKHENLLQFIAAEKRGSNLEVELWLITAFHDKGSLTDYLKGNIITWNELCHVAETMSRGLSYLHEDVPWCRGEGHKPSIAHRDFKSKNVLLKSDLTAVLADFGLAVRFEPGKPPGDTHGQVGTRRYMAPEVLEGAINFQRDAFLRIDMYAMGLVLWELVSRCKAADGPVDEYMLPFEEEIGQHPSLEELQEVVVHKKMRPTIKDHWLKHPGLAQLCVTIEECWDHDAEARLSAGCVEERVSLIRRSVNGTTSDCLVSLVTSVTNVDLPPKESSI
Chain of Casein kinase I isoform gamma-1 (Q9HCP0 whole entry, canonical isoform): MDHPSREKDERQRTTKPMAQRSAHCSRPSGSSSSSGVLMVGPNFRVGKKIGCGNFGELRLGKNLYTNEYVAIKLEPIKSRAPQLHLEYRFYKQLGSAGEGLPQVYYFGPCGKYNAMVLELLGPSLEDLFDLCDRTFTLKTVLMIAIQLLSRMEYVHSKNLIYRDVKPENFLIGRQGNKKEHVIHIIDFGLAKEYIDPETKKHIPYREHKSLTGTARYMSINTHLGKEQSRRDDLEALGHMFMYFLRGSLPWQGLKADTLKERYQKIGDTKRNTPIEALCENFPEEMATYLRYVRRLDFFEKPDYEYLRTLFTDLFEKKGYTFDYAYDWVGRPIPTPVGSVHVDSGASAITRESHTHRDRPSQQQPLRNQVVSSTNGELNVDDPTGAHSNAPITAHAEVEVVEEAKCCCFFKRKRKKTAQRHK
Chain of Mitogen-activated protein kinase 10 (P53779 whole entry): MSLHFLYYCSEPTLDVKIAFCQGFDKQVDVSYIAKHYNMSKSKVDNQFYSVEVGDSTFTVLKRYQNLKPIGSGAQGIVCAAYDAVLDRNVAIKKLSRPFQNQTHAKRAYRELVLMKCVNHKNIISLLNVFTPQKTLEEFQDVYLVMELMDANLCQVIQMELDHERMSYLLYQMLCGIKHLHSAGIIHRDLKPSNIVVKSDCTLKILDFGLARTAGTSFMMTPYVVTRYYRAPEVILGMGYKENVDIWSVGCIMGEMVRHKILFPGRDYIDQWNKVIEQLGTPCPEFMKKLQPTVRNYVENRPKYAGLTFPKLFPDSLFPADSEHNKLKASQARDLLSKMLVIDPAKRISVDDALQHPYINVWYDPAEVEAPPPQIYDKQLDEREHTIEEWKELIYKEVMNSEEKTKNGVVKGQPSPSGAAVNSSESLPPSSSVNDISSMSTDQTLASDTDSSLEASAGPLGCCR
Chain of Macrophage-stimulating protein receptor (Q04912 25-304 limits assumed): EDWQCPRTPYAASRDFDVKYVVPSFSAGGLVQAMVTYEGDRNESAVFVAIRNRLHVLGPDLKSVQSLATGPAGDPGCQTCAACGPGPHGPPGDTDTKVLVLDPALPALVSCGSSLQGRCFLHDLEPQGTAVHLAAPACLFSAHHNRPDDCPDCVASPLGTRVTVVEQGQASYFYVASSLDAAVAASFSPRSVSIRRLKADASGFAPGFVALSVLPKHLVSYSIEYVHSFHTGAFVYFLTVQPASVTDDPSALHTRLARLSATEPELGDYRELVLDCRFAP
Chain of Macrophage-stimulating protein receptor (Q04912 310-1400 limits assumed): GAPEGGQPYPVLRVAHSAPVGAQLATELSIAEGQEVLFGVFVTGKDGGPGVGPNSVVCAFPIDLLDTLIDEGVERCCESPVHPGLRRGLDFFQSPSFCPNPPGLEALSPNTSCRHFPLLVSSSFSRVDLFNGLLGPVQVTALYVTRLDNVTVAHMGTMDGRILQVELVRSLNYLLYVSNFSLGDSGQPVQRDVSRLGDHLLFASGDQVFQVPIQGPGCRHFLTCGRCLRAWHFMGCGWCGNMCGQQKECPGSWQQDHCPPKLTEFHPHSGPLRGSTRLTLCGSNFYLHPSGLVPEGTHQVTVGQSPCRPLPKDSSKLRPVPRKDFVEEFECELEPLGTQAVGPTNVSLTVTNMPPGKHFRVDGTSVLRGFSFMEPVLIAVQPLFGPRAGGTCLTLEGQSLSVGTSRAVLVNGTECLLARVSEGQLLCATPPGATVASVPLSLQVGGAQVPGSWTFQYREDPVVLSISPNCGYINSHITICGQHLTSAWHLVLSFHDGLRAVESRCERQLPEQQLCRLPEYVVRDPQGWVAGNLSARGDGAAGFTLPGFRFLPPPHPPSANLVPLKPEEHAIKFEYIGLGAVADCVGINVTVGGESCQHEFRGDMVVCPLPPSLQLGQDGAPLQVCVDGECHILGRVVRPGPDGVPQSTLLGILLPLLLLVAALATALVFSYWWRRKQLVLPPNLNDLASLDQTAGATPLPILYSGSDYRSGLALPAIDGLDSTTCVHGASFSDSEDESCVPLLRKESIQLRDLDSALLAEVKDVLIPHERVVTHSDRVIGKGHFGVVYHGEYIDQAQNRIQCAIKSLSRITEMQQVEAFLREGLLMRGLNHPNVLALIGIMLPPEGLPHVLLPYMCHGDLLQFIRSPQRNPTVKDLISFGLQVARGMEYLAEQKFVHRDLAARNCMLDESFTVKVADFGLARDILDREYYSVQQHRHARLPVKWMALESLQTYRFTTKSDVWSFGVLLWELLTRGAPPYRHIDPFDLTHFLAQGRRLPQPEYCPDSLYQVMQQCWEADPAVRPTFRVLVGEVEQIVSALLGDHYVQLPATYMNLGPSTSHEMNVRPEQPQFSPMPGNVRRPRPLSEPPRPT

CC(=O)c1cnc2ccc(-c3cc(Cl)c(O)c(Cl)c3)nc2c1N[C@H]1CC[C@H](CN(C)C)CC1
inactive: Glycine--tRNA ligase > 30 µM | [2] > 30 µM | [3] > 30 µM | Activin receptor type-2B > 30 µM | [7] > 30 µM
0.665 µM: [4]
active: [1] 0.311 µM | [5] 0.125 µM | [6] 0.112 µM

Cc1nc(NC(=O)N2CCC[C@H]2C(N)=O)sc1-c1ccnc(C(C)(C)C(F)(F)F)c1 [ALPELISIB]
inactive: [1] > 30 µM | Glycine--tRNA ligase > 30 µM | [3] > 30 µM | [4] > 30 µM | [5] > 30 µM | [8] > 30 µM | [6] > 30 µM | [7] > 30 µM

COCC(=O)NC/C=C/c1ccc2ncnc(Nc3ccc(Oc4ccc(C)nc4)c(C)c3)c2c1 [CP-724714]
inactive: Rab-like protein 3 > 30 µM | [1] > 30 µM | Glycine--tRNA ligase > 30 µM | [2] > 30 µM | [4] > 30 µM | [5] > 30 µM | Activin receptor type-2B > 30 µM | [8] > 30 µM | [6] > 30 µM | [7] > 30 µM

C#Cc1cccc(Nc2ncnc3cc(OC)c(OCCCCCCC(=O)NO)cc23)c1 [CUDC-101]
inactive: Rab-like protein 3 > 30 µM | [1] > 30 µM | Glycine--tRNA ligase > 30 µM | [2] > 30 µM | [4] > 30 µM | [5] > 30 µM | Activin receptor type-2B > 30 µM | [8] > 30 µM | [6] > 30 µM | [7] > 30 µM

COc1ccc(S(=O)(=O)N(C(C)=O)c2ccccc2/C=C/c2cc[n+]([O-])cc2)cc1 [HMN-214]
inactive: Rab-like protein 3 > 30 µM | [1] > 30 µM | Glycine--tRNA ligase > 30 µM | [3] > 30 µM | [4] > 30 µM | [5] > 30 µM | Activin receptor type-2B > 30 µM | [8] > 30 µM | [6] > 30 µM | [7] > 30 µM

FC(F)(F)c1ccc(/C=C/c2nc(COc3ccc(CCCCn4ccnn4)cc3)co2)cc1 [MUBRITINIB]
inactive: Rab-like protein 3 > 30 µM | [1] > 30 µM | Glycine--tRNA ligase > 30 µM | [3] > 30 µM | [4] > 30 µM | [5] > 30 µM | Activin receptor type-2B > 30 µM | [8] > 30 µM | [6] > 30 µM | [7] > 30 µM

COc1ncc(-c2ccc3nccc(-c4ccnnc4)c3c2)cc1NS(=O)(=O)c1ccc(F)cc1F [OMIPALISIB]
inactive: Rab-like protein 3 > 30 µM | [1] > 30 µM | Glycine--tRNA ligase > 30 µM | [3] > 30 µM | [4] > 30 µM | [5] > 30 µM | Activin receptor type-2B > 30 µM | [8] > 30 µM | [6] > 30 µM | [7] > 30 µM

CO[C@H]1C[C@@H]2CC[C@@H](C)[C@@](O)(O2)C(=O)C(=O)N2CCCC[C@H]2C(=O)O[C@H]([C@H](C)C[C@@H]2CC[C@@H](O)[C@H](OC)C2)CC(=O)[C@H](C)/C=C(\C)[C@@H](O)[C@@H](OC)C(=O)[C@H](C)C[C@H](C)/C=C/C=C/C=C/1C [SIROLIMUS]
inactive: [1] > 30 µM | Glycine--tRNA ligase > 30 µM | [3] > 30 µM | [4] > 30 µM | [5] > 30 µM | Activin receptor type-2B > 30 µM | [8] > 30 µM | [6] > 30 µM | [7] > 30 µM

CC(C)c1cc(CNc2nc(Nc3cc(C4CC4)[nH]n3)cc(N3CCN(C)CC3)n2)on1 [XL-228]
active: [1] 2.37 µM | [5] 0.023 µM
inactive: Rab-like protein 3 > 30 µM | Glycine--tRNA ligase > 30 µM | [3] > 30 µM | [4] > 30 µM | Activin receptor type-2B > 30 µM | [8] > 30 µM | [6] > 30 µM | [7] > 30 µM
